For one experiment, the system named is TCF-4 / Wnt signaling. Kind of experiment: TOPflash luciferase reporter (Wnt signaling) in U87MG. The format is cell-based, human. Conditions: IFNγ treated, 24 hrs post-transfection. As to the method:
FIG. 11 Impact of IFN-γ on Wnt signaling. U87MG cells were left untreated or treated with IFN-γ for 24 hrs and then transfected with either TOPflash (containing four native TCF/LEF binding sites) and Renilla constructs or GFP and Renilla constructs. Transfected cells were then cultured with or without their initial treatment (with or without IFN-γ). Luciferase relative light activity (relative light units) was measured 24 hrs later using a luminometer and normalized to Renilla activity. Data are based on at least three experiments and are presented as the increase (n-fold) in luciferase relative light units over Renilla ±standard deviation.
Wnt signaling in astrocytes and its inhibition by IFNγ was investigated: Although inhibiting TCF-4 with a dominant negative mutant stresses the importance of active TCF-4 in restricting HIV replication, it is not informative regarding the mechanism by which IFNγ overcomes astrocyte restriction to productive HIV replication. […] Luc activity was measured 24 hrs post-transfection TCF-4 reporter construct is an indicator of basal and inducible levels of Wnt signaling.
Active Wnt signaling in astrocytes and its inhibition by IFN-γ. […] Basal TCF-4 activity was detected in astrocytes, indicating active Wnt signaling in human astrocytes (FIG. 11). […]

In the next experiment the test system is CD4, hMR, CXCR4 on HFA. Briefly: HIV receptor and chemokine co-receptor expression on HFA by flow cytometry. The format is cell-based, human. Here is the method:
U87MG (A) and HFA (B) were left untreated or treated GM-CSF (50 ng/ml) or IFNγ (100 ng/ml) for 24 h. Expression of receptors on the x-axis was measured by flow cytometry. Isotype refers to mouse IgG. Data is representative of three experiments. Error bars represent standard deviation of the mean. (C). IFNγ up-regulates D6 on U87MG cells. U87MG were left untreated or treated with IFNγ. After 3 days, the cells were immunostained with anti-D6 or isotype antibodies. The first histogram (peak) represents isotype control; the dark shaded histogram represents untreated cultures, and the third histogram (peak) represents IFNγ-treated cultures. Data is typical of quadruplet experiments.
Because IFNγ was a potent cytokine in inducing HIV infection of astrocytes, it was determined whether IFNγ treatment modulated key HIV receptors CD4, human mannose receptor D6 and co-receptors (CCR1, CCR2, CCR3, CXCR4, and CCR5) for HIV infection. U87MG is human mannose receptor (hMR) […] (FIG. 5). However, hMR was not detected on HFA, which may be regulated by the differentiation stage of the HFA (FIG. 5 (B)). CD4 and hMR expression in both U87MG and HFA was not augmented by IFNγ or GM-CSF (FIG. 5(A)-(B)). […] HFA were positive for CXCR4 (12%), but its expression was not augmented by GM-CSF or IFNγ treatment (FIG. 5B). IFNγ was reported to enhance CXCR4 and CCR5 expression on simian adult astrocytes, which is in contrast to data on human fetal astrocytes highlighting a discrepancy between simian adult and human fetal astrocytes. […] Infection of U87MG and HFA with a T-tropic isolate (IIIB), while it was productive, was not enhanced by cytokine pre-treatment. This may be a consequence of the laboratory adapted HIV IIIB, therefore primary T-tropic or dual tropic strains may still be responsive to IFNγ pre-treatment of astrocytes. Recently, the CC chemokine receptor D6 was identified as a functional co-receptor for primary HIV infection of astrocytes.
In general terms: In flow cytometry, cells or beads pass a laser one at a time.

Turning to “IFNγ: cytokine secreted by lymphocytes, activated microglia and astrocytes; used to prime astrocytes”, the “Reduction of basal Wnt signaling (TOPflash luciferase)” value with TCF-4 / Wnt signaling was “approximately 50%”. The “CD4 and hMR expression” value with CD4, hMR, CXCR4 on HFA is reported as “not augmented”. Also, in the experiment with CD4, hMR, CXCR4 on HFA (untreated 12%), the CXCR4 expression result was “not augmented”.

The record behind these values is US20080193563A1, “HARNESSING WNT SIGNALING TO RESTRICT HIV REPLICATION” (priority 2006, published 2008).
